Results as given in article PMC11313180 (International Journal of Molecular Sciences, 2024).
Like-named read-outs stand apart in the source and are kept apart here.

Key:
HDAC8 [1] = conditions: obtained by fitting Lechner et al. source data to a sigmoidal concentration–effect model; ref [21]; read-out: IC50 HDAC 8, Lechner et al.; cited from earlier work
HDAC4 = biological target: T1, HDAC4 (Homo sapiens, UniProt P56524); test: Enzyme HDAC inhibition assay, HDAC4; assay type: biochemical; conditions: IC50 ± SEM; three experiments in duplicates; read-out: IC50 HDAC 4
T1 construct: purchased Reaction Biology Corp. KDA-21-279
Source text: (§2) All human recombinant enzymes were purchased from Reaction Biology Corp. (Malvern, PA, USA).

[2] = system: class I/IIb HDAC activity in T47D cells; test: cells; assay type: cell-based, human; conditions: T47D cells, 48 h, substrate Boc-Lys-AC-AMC; IC50 ± SEM, one experiment in triplicates; read-out: IC50 Cellular HDAC Assay
Protocol: The cellular HDAC assay was performed based on an assay published by Heltweg and Jung and Ciossek et al.. Breast cancer cell line T-47D (12,000 c/w) was seeded in 96-well tissue culture plates (Corning, Kaiserslautern, Germany) in a total volume of 90 µL of culture medium. After 24 h, cells were incubated 48 h with increasing concentrations of a-lipoic acid. The reaction was started by adding 10 µL of 3 mM Boc-Lys(Ac)-AMC (Bachem, Bubensdorf, Switzerland) and again incubated for 3 h under cell culture conditions. […]

HDAC8 [3] = biological target: T2, HDAC8 (Homo sapiens, UniProt Q9BY41); test: Enzyme HDAC inhibition assay, HDAC8; conditions: read-out: IC50 HDAC 8; IC50 ± SEM; three experiments in duplicates
T2 sequence (Q9BY41 1-377): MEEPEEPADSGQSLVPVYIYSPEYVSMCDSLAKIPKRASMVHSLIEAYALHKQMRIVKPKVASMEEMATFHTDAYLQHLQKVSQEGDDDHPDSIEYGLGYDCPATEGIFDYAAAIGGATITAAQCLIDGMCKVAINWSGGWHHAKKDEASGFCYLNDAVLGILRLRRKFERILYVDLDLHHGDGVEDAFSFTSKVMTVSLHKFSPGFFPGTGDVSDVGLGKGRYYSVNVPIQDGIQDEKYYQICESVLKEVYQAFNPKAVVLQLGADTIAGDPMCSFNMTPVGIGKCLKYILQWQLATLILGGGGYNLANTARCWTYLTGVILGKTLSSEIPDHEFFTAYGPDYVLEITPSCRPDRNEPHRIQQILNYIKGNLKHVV
Source text: as §2

MCF-7 = test: MTT cell viability assay, MCF-7; assay type: cell-based, human
Protocol: (§1) MTT assays were performed as previously described. […] After incubation time, medium was replaced by MTT (solution of 5 mg/mL 3-(4,5-dimethylthiazol-2-yl)-2,5-diphenyl-tetrazoliumbromidin in phosphate buffered saline, Serva, Heidelberg, Germany).

T47D = test: MTT cell viability assay, T47D; assay type: cell-based, human
Protocol: as §1

HDAC6 = biological target: T3, HDAC6 (Homo sapiens, UniProt Q9UBN7); test: Enzyme HDAC inhibition assay, HDAC6; conditions: read-out: IC50 HDAC 6; IC50 ± SEM; three experiments in duplicates
T3 sequence (Q9UBN7 1-1215): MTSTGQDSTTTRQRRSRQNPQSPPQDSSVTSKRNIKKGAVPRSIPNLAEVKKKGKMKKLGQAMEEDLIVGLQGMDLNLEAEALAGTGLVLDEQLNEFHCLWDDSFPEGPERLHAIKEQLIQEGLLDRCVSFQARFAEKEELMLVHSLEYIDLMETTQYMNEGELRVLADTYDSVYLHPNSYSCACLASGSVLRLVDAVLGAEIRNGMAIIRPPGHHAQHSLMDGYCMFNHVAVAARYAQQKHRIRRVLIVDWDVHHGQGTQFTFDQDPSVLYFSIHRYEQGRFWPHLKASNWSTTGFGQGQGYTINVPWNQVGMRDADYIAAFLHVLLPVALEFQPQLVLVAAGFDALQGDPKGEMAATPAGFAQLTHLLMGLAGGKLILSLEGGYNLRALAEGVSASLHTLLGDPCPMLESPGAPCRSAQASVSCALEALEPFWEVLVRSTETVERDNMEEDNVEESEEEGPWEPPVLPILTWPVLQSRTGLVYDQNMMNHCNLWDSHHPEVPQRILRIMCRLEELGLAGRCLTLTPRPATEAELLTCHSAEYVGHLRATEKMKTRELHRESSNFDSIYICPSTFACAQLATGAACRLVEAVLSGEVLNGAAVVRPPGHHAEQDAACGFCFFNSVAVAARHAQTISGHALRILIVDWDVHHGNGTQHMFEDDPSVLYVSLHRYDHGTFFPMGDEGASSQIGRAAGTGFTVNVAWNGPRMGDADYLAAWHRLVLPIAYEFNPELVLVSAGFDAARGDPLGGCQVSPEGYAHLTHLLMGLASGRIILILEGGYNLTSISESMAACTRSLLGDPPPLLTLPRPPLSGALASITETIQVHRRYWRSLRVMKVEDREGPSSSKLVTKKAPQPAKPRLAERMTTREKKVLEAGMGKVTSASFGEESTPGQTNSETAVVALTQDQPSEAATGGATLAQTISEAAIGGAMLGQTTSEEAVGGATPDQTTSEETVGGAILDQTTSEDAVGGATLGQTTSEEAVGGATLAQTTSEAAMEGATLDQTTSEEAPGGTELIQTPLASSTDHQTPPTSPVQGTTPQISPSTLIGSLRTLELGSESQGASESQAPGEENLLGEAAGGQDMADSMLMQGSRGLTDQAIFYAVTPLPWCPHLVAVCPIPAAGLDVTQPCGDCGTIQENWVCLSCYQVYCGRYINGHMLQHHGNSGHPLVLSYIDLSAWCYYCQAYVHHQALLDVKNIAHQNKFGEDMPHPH
Source text: as §2

MDA-MB-231 = test: MTT cell viability assay, MDA-MB-231; assay type: cell-based, human
Protocol: MTT assays were performed as previously described. Cell numbers plated differed depending on each incubation time: MDA-MB-231 5000 c/w, MCF-7 5000 c/w (72 h) and 3000 c/w (120 h), T-47D 10,000 c/w (72 h) and 5000 c/w /120 h). After incubation time, medium was replaced by MTT (solution of 5 mg/mL 3-(4,5-dimethylthiazol-2-yl)-2,5-diphenyl-tetrazoliumbromidin in phosphate buffered saline, Serva, Heidelberg, Germany). After 10 min (MCF-7), 20 min (MDA-MB-231), and 30 min (T47D) and dissolving in DMSO (VWR, Langenfeld, Germany), absorbance was measured at 544 nm and 690 nm in a FLUOstar microplate reader (BMG LabTech, Offenburg, Germany).

[4] = 120 h, IC50 ± SEM, read-out: IC50 MCF-7, 120 h MTT assay
[5] = 120 h, IC50 ± SEM, read-out: IC50 T-47D, 120 h MTT assay
[6] = 120 h, IC50 ± SEM, read-out: IC50 MDA-MB-231, 120 h MTT assay

T1 sequence (P56524 whole entry): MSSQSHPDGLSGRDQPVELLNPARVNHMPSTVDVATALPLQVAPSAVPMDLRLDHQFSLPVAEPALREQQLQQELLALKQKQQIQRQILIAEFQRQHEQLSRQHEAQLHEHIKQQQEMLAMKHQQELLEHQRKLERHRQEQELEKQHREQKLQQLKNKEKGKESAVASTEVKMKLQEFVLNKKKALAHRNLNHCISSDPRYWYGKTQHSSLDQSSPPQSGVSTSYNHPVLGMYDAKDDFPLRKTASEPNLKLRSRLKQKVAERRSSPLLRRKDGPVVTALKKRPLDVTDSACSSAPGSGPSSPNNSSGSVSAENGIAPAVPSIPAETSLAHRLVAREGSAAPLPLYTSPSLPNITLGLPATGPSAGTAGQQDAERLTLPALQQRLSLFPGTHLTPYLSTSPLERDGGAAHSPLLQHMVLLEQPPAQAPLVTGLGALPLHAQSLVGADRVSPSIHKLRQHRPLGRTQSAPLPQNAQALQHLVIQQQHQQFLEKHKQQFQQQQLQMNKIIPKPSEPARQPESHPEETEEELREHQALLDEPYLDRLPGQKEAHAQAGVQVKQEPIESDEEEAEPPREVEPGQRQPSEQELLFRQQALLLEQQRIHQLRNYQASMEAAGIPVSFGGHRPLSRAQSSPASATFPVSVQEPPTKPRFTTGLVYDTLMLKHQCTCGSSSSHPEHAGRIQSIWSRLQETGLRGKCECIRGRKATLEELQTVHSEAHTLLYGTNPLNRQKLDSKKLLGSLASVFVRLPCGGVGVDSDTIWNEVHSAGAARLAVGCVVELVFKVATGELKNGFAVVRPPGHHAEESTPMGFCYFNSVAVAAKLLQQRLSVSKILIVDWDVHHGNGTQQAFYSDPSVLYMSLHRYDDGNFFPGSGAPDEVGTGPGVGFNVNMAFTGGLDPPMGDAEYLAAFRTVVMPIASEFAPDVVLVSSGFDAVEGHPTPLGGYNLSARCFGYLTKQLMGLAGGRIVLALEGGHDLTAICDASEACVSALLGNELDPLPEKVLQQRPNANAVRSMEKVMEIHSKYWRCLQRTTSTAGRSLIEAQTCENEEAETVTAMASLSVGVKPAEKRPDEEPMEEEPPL

| Compound | IC50 (HDAC8 [1]) [µM] | IC50 (HDAC4) [µM] | IC50 [2] [µM] | IC50 (HDAC8 [3]) [µM] | IC50 (MCF-7; [4]) [µM] | IC50 (T47D; [5]) [µM] | IC50 (HDAC6) [µM] | IC50 (MDA-MB-231; [6]) [µM] | further results |
| --- | --- | --- | --- | --- | --- | --- | --- | --- | --- |
| O=C(O)CCCC[C@@H]1CCSS1 [(R)-α-lipoic acid] | 127 | 168 ± 19.3 | 969 ± 120 | 151 ± 33.4 | 439 ± 16.3 | 435 ± 28.6 | 14.2 ± 2.62 | 225 ± 7.33 | inhibition of cell proliferation at 100 µM, MCF-7 (MCF-7; 100 µM, 120 h MTT): did not inhibit cell proliferation; reduction of proliferation at 300 µM, MCF-7 (MCF-7; 300 µM, 120 h MTT): significantly reduced proliferation; decrease of cell viability, MCF-7 (MCF-7; 1 mM, 72 h MTT): approximately 35%; IC50 (MCF-7; 72 h MTT, slightly above, read-out: IC50 MCF-7): ~1000 µM; increase in potency by prolongation of incubation time, MCF-7 (MCF-7; 120 h versus 72 h MTT): 2.7 fold; IC50 (MCF-7; read-out: IC50 MCF-7, 72 h MTT assay, 72 h, IC50 ± SEM): 1170 ± 28.9 µM; reduction of proliferation at 100 µM, T47D (T47D; 100 µM, 120 h MTT): 12%; reduction of proliferation at 300 µM, T47D (T47D; 300 µM, 120 h MTT, more pronounced effect in T47D): significantly reduced proliferation; decrease of cell viability, T47D (T47D; 1 mM, 72 h MTT): approximately 35%; IC50 (T47D; 72 h MTT, slightly above, read-out: IC50 T47D): ~1000 µM; increase in potency by prolongation of incubation time, T47D (T47D; 120 h versus 72 h MTT): 2.6 fold; IC50 (T47D; read-out: IC50 T-47D, 72 h MTT assay, 72 h, IC50 ± SEM): 1120 ± 67.8 µM; IC50 (MDA-MB-231; 72 h MTT, slightly below, read-out: IC50 MDA-MB-231): ~1000 µM; increase in potency by prolongation of incubation time, MDA-MB-231 (MDA-MB-231; 120 h versus 72 h MTT): 3.9 fold; IC50 (MDA-MB-231; read-out: IC50 MDA-MB-231, 72 h MTT assay, 72 h, IC50 ± SEM): 873 ± 36 µM |
| O=C(O)CCCC[C@H]1CCSS1 [(S)-α-lipoic acid] | > 500 | 324 ± 39.9 | 906 ± 87.7 | 559 ± 71 | 429 ± 26.8 | 338 ± 17.4 | 21.3 ± 1.23 | 243 ± 25.1 | – |
